Results reported in patent US4322416A, “10-Alkynyl steroids” (Merrell Dow Pharmaceuticals Inc., priority 1981, dated 1982).
Entries after “also recorded” stand apart in the source; their conditions may differ.

Tests used:
[1] = test system: estrogen production required for ovulation; conditions: rats; cited from earlier work
aromatase = conditions: microsomal enzyme preparations from human placenta; cited from earlier work
[2] = target: T1, aromatase (microsomal fraction from human placenta) (Homo sapiens, UniProt P11511); test: biochemical; type: biochemical
T1 construct: microsomal fraction isolated from human placenta; from tissue; host or cells: human placenta, microsomal fraction
T1 sequence (P11511 1-503): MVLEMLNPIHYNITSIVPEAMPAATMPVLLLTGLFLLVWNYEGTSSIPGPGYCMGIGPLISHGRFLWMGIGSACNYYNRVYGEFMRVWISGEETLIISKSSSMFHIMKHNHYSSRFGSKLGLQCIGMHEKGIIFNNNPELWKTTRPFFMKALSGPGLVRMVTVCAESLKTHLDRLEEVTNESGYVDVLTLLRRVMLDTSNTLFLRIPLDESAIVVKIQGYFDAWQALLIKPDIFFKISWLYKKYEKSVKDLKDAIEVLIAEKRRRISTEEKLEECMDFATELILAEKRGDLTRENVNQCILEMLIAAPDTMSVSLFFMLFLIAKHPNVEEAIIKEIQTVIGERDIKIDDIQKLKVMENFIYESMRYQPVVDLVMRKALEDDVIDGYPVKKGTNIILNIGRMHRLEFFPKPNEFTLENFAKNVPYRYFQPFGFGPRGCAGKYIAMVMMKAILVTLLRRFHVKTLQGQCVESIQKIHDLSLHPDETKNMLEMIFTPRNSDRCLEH
Method: (§1) The aromatase inhibitory action of the compounds of the invention can be determined using a radioenzymatic assay. An aromatase enzyme preparation from the microsomal fraction isolated from human placenta is employed.
Assay buffer contains 100 mM KCl, 10 mM KH2 PO4, 10 mM dithiothreitol and 1 mM EDTA at pH 8.0. […] Aromatase requires NADPH as a cofactor, therefore a generating system is included which uses 0.5 mM NADP^+, 2.5 mM glucose-6-phosphate, and 1.0 unit/ml of glucose-6-phosphate dehydrogenase in assay buffer. The enzyme reaction is initiated by the addition of 700 μl of aromatase preparation, usually 50 μg microsomal protein per ml of assay buffer. These preparations are mixed using a vortex mixer and incubated for 30 minutes at 37° C. with 95% O2 :5% CO2 gas phase in a Dubinoff shaking incubator.
The enzymatic reaction is terminated by the addition of CHCl3. After vortexing 20 seconds, aqueous/organic emulsions are dispersed and phase separation achieved following centrifugation at 600×g for 10 minutes. Duplicate 500 μl samples of the upper aqueous phase of each incubation sample are added to 10×75 mm culture tubes. […] The radioactivity of ^3 H2 O resulting from liberated 1β and 2β tritium atoms during the enzymatic reaction is determined by counting for 10 minutes in a liquid scintillation counter. […]

[3] = target: T2, aromatase (aromatase preparation; microsomal protein) (Homo sapiens, UniProt P11511); test: biochemical
T2 sequence (P11511 1-503): T1 sequence (P11511 1-503)
Method: as §1
In this assay, the inhibitor is preincubated with enzyme prior to assaying for enzyme activity in the presence of high substrate levels.
In the time-dependent assay, an amount of the enzyme inhibitor in 100 μl of the assay buffer described above which will provide assay concentrations which are approximately one and ten times the IC50 values are added to 35 ml centrifuge tubes containing 600 μl of the NADPH generating system described above. The preincubation is started by the addition of 700 μl of aromatase preparation, usually 500-800 μg of microsomal protein per ml of assay buffer. These preparations are mixed using a vortex mixer and incubated for 0, 10, 20 or 40 minutes at 25° C. […] Following vortexing, the enzyme incubation is continued for 10 minutes before being terminated by the addition of chloroform. The amount of radioactivity in the aqueous fraction is determined by scintillation procedures. […] Therefore, the present enzyme inhibition is expressed as a percentage: [100 percent minus percent enzyme activity of inhibitor].
Compounds which show time-dependent inhibition are then assayed to establish the inhibition constant, Ki, which is the apparent dissociation constant for the enzyme-inhibitor complex. This determination requires measurements at initial velocities of enzyme reaction. […] The enzyme half-life (t1/2) at these different inhibitor concentrations ([In]) is used to determine the Ki by the linear regression equation of the t1/2 vs. 1/[In]. The Ki is equivalent to the inhibitor concentration when t1/2 is equal to zero.

[4] = test system: implantation in mated rats; conditions: cited from earlier work

SMILES: CC(=O)OC1=C2CC[C@@H]3[C@H](CC[C@]4(C)C(=O)CC[C@@H]34)[C@@]2(C)CCC1=O [4-acetoxy-androst-4-ene-3,17-dione]
- preventing estrogen production required for ovulation [1]: effective in preventing estrogen production required for ovulation in rats
- identified as aromatase inhibitor (aromatase): identified as aromatase inhibitors

SMILES: C[C@]12CCC(=O)C(O)=C1CC[C@@H]1[C@@H]2CC[C@]2(C)C(=O)CC[C@@H]12 [4-hydroxy-androst-4-ene-3,17-dione]
- identified as aromatase inhibitor (aromatase): identified as aromatase inhibitors

SMILES: C#CC[C@]12CCC(=O)C=C1CC[C@@H]1[C@@H]2CC[C@]2(C)C(=O)CC[C@@H]12 [10-(2-propynyl)estr-4-ene-3,17-dione]
- IC50 [2]: 4.2 nM
- enzyme affinity compared with known inhibitors [2]: greater enzyme affinity than other known inhibitors; also recorded: superior to known aromatase inhibitors
- Ki [3]: 8.9 nM
- affinity for the enzyme site relative to that of the natural substrate testosterone ([3]; Ki vs. Km of testosterone): five times greater
- irreversible binding to / irreversible inhibition of aromatase ([3]; time-dependent inhibition, in words): irreversibly bound to the enzyme

SMILES: C[C@]12C=CC(=O)C=C1C=C[C@@H]1[C@@H]2CC[C@]2(C)C(=O)CC[C@@H]12 [Androsta-1,4,6-triene-3,17-dione]
- preventing implantation [4]: effective in preventing implantation in mated rats
- identified as aromatase inhibitor (aromatase): identified as aromatase inhibitors
